# Test results from patent US20260256933A1, “METHOD FOR TREATING CANCER VIA ANTI-B7H3 ANTIBODY-DRUG CONJUGATE” (MediLink Therapeutics (Suzhou) Co., Ltd., priority 2023, published 2026).
# How the values were obtained:
# [1] = test system: recurrent or malignant cervical cancer; details: treatment of recurrent or malignant cervical cancer; clinical; cited from earlier work
# [2] = test system: B-hB7-H3 MC38 transplantation tumours; assay: B-hB7-H3 MC38 transplantation tumour model, ADC1 in combination with anti-PD-L1 drug; assay type: in vivo, C57BL/6 mice; details: G4: anti-PD-L1 3 mg/kg i.p. BIW x4
# Protocol: MC38 cells (Shunran (Shanghai) Biotechnology Co., Ltd.) were genetically modified to express the human B7H3 genes, thereby obtaining B-hB7-H3 MC38 cells. The cells were subcutaneously inoculated into C57BL/6 mice to establish a B-hB7-H3 MC38 tumour cell transplantation tumour model. When the tumours grew to approximately 140 mm^3, grouping for animal experiments was performed, a control group (G1: 0.9% sodium chloride injection), monotherapy groups (G2: ADC1 10 mg/kg group, G3: ADC1 3 mg/kg group, G4: anti-PD-L1 3 mg/kg group), and combination therapy groups (G5: group with ADC1 10 mg/kg in combination with anti-PD-L1 3 mg/kg, G6: group with ADC1 3 mg/kg in combination with anti-PD-L1 3 mg/kg) were established respectively, with 8 mice in each group. Dosing was performed according to the regimen in Table 1. The anti-PD-L1 drug was atezolizumab (Biocytogen). At the end of the experiment, therapeutic effects were evaluated according to the tumour growth inhibition (TGI), and tolerability was evaluated according to clinical observations, body weight changes, and mortality of the animals.
# Note: a: the dosing volume was calculated at […] based on the body weight of the experimental animals, and each drug injection was completed within 10 to 20 seconds. • b: BIW refers to administration twice weekly. When the combined treatment groups were dosed on the same day, there was no required sequence or dosing interval between the two drugs.
# Note: a: mean±standard error; b: statistical comparison of the tumour volume in the dosing groups versus the tumour volume in the G1 control group on Day 22 after grouping for dosing, one-way ANOVA analysis and Dunnett's test; ****p<0.0001. c: the tumour clearance proportion was counted according to the results on Day 25.
Substance,ORR [1] [%],TGITV (%) ([2]; Day 22),"Tumour volume before dosing ([2]; baseline before dosing, mean) [mm3]",Tumour clearance proportion ([2]; counted on Day 25),Tumour volume Day 22 after grouping for dosing ([2]; mean) [mm3]
Tivdak: an ADC drug targeting TF,24,,,,
atezolizumab [Anti-PD-L1],,22.4,140,0/8,1689
